Legend:
Format in all cases: cell-based
A. calcoaceticus = A. calcoaceticus strain AC002
[1] = test system: inherently resistant microorganisms; assay: microbe, parasite or virus in culture
S. maltophilia = S. maltophilia strain SMA002
S. epidermidis = S. epidermidis strain SE010
K. pneumoniae = K. pneumoniae strain KP001
[2] = test system: microorganisms with acquired resistance; assay: microbe, parasite or virus in culture
E. faecalis = E. faecalis strain EFS001
E. cloacae = E. cloacae strain ECL007
E. coli = E. coli strain ECO005
bacterial isolates = assay: microbe, parasite or virus in culture
P. aeruginosa = P. aeruginosa strain PA004
S. aureus = S. aureus strain SA093
S. marcescens = S. marcescens strain SMS003
[3] = peptide + Amikacin, P. aeruginosa PA022
[4] = peptide + Gentamicin, A. baumannii ABI001
[5] = peptide + Gentamicin, A. baumannii ABI002
[6] = peptide + Gentamicin, A. calcoaceticus AC001
[7] = peptide + Gentamicin, P. aeruginosa PA041
[8] = peptide + Gentamicin, S. maltophilia SMA019

ILRWPWWPWRRKIMILKKAGS [MBI 11B16CN]
MIC (A. calcoaceticus): 4 µg/mL | Peptide MIC + Amikacin ([1]; A. baumannii): 4 µg/mL | Peptide MIC Alone ([1]; A. baumannii, Amikacin section): 32 µg/mL | Peptide MIC + Amikacin ([1]; S. aureus MRSA): 4 µg/mL | Peptide MIC + Gentamicin ([1]; S. aureus MRSA): 4 µg/mL | Peptide MIC Alone ([1]; S. aureus MRSA, Amikacin section): 8 µg/mL | Peptide MIC Alone ([1]; S. aureus MRSA, Gentamicin section): 8 µg/mL | FIC ([1]; peptide + Amikacin, A. baumannii): 0.25 | FIC ([1]; peptide + Gentamicin, S. aureus MRSA): 0.53 | MIC (S. maltophilia): 32 µg/mL | MIC (S. epidermidis): 4 µg/mL | MIC (K. pneumoniae): 16 µg/mL | Gentamicin MIC + Peptide ([2]; A. baumannii ABI001): 4 µg/mL | Peptide MIC + Gentamicin ([2]; A. baumannii ABI001): 4 µg/mL | Peptide MIC Alone ([2]; A. baumannii ABI001, Gentamicin section): 16 µg/mL | Gentamicin MIC + Peptide ([2]; A. baumannii ABI002): 2 µg/mL | Peptide MIC + Gentamicin ([2]; A. baumannii ABI002): 4 µg/mL | Peptide MIC Alone ([2]; A. baumannii ABI002, Gentamicin section): 16 µg/mL | Gentamicin MIC + Peptide ([2]; A. calcoaceticus AC001): 1 µg/mL | Peptide MIC + Gentamicin ([2]; A. calcoaceticus AC001): 4 µg/mL | Peptide MIC Alone ([2]; A. calcoaceticus AC001, Gentamicin section): 32 µg/mL | Amikacin MIC + Peptide ([2]; P. aeruginosa PA022): 8 µg/mL | Peptide MIC + Amikacin ([2]; P. aeruginosa PA022): 16 µg/mL | Peptide MIC Alone ([2]; P. aeruginosa PA022, Amikacin section): 64 µg/mL | Gentamicin MIC + Peptide ([2]; P. aeruginosa PA023): 4 µg/mL | Peptide MIC + Gentamicin ([2]; P. aeruginosa PA023): 16 µg/mL | Peptide MIC Alone ([2]; P. aeruginosa PA023, Gentamicin section): >128 µg/mL | Gentamicin MIC + Peptide ([2]; P. aeruginosa PA041): 2 µg/mL | Peptide MIC + Gentamicin ([2]; P. aeruginosa PA041): 16 µg/mL | Peptide MIC Alone ([2]; P. aeruginosa PA041, Gentamicin section): >128 µg/mL | Gentamicin MIC + Peptide ([2]; S. maltophilia SMA017): 2 µg/mL | Peptide MIC + Gentamicin ([2]; S. maltophilia SMA017): 16 µg/mL | Peptide MIC Alone ([2]; S. maltophilia SMA017, Gentamicin section): 128 µg/mL | Gentamicin MIC + Peptide ([2]; S. maltophilia SMA019): 0.5 µg/mL | Peptide MIC + Gentamicin ([2]; S. maltophilia SMA019): 16 µg/mL | Peptide MIC Alone ([2]; S. maltophilia SMA019, Gentamicin section): 32 µg/mL | FIC [2, 3]: 0.38 | FIC [2, 4]: 0.31 | FIC [2, 5]: 0.31 | FIC [2, 6]: 0.25 | FIC ([2]; peptide + Gentamicin, P. aeruginosa PA023): 0.56 | FIC [2, 7]: 0.31 | FIC ([2]; peptide + Gentamicin, S. maltophilia SMA017): 0.16 | FIC [2, 8]: 0.51 | MIC (E. faecalis): 2 µg/mL | MIC (E. cloacae): >128 µg/mL | MIC (E. coli): 16 µg/mL | Peptide MIC Alone (bacterial isolates; 1. Amikacin, A. baumannii ABI001): 32 µg/mL | Peptide MIC Alone (bacterial isolates; 1. Amikacin, A. baumannii ABI003): 16 µg/mL | Peptide MIC Alone (bacterial isolates; 1. Amikacin, E. faecalis EFS008): 8 µg/mL | Peptide MIC Alone (bacterial isolates; 1. Amikacin, P. aeruginosa PA022): 64 µg/mL | Peptide MIC Alone (bacterial isolates; 1. Amikacin, P. aeruginosa PA037): >128 µg/mL | Peptide MIC Alone (bacterial isolates; 1. Amikacin, S. maltophilia SMA018): 32 µg/mL | Peptide MIC Alone (bacterial isolates; 1. Amikacin, S. maltophilia SMA022): >128 µg/mL | Peptide MIC Alone (bacterial isolates; 4. Gentamicin, A. baumannii ABI001): 16 µg/mL | Peptide MIC Alone (bacterial isolates; 4. Gentamicin, A. baumannii ABI002): 16 µg/mL | Peptide MIC Alone (bacterial isolates; 4. Gentamicin, A. calcoaceticus AC001): 32 µg/mL | Peptide MIC Alone (bacterial isolates; 4. Gentamicin, E. faecalis EFS008): 4 µg/mL | Peptide MIC Alone (bacterial isolates; 4. Gentamicin, P. aeruginosa PA022): 64 µg/mL | Peptide MIC Alone (bacterial isolates; 4. Gentamicin, P. aeruginosa PA041): >128 µg/mL | Peptide MIC Alone (bacterial isolates; 4. Gentamicin, S. aureus SA014 MRSA): 8 µg/mL | Peptide MIC Alone (bacterial isolates; 4. Gentamicin, S. maltophilia SMA016): >128 µg/mL | Peptide MIC Alone (bacterial isolates; 4. Gentamicin, S. maltophilia SMA019): 32 µg/mL | Amikacin MIC + Peptide (bacterial isolates; A. baumannii ABI001): 0.125 µg/mL | Gentamicin MIC + Peptide (bacterial isolates; A. baumannii ABI001): 4 µg/mL | Peptide MIC + Amikacin (bacterial isolates; A. baumannii ABI001): 16 µg/mL | Peptide MIC + Gentamicin (bacterial isolates; A. baumannii ABI001): 4 µg/mL | Gentamicin MIC + Peptide (bacterial isolates; A. baumannii ABI002): 2 µg/mL | Peptide MIC + Gentamicin (bacterial isolates; A. baumannii ABI002): 4 µg/mL | Amikacin MIC + Peptide (bacterial isolates; A. baumannii ABI003): 0.5 µg/mL | Peptide MIC + Amikacin (bacterial isolates; A. baumannii ABI003): 8 µg/mL | Gentamicin MIC + Peptide (bacterial isolates; A. calcoaceticus AC001): 1 µg/mL | Peptide MIC + Gentamicin (bacterial isolates; A. calcoaceticus AC001): 4 µg/mL | Amikacin MIC + Peptide (bacterial isolates; E. faecalis EFS008): 8 µg/mL | Gentamicin MIC + Peptide (bacterial isolates; E. faecalis EFS008): 64 µg/mL | Peptide MIC + Amikacin (bacterial isolates; E. faecalis EFS008): 0.25 µg/mL | Peptide MIC + Gentamicin (bacterial isolates; E. faecalis EFS008): 0.5 µg/mL | Amikacin MIC + Peptide (bacterial isolates; P. aeruginosa PA022): 8 µg/mL | Gentamicin MIC + Peptide (bacterial isolates; P. aeruginosa PA022): 8 µg/mL | Peptide MIC + Amikacin (bacterial isolates; P. aeruginosa PA022): 16 µg/mL | Peptide MIC + Gentamicin (bacterial isolates; P. aeruginosa PA022): 8 µg/mL | Amikacin MIC + Peptide (bacterial isolates; P. aeruginosa PA037): 2 µg/mL | Peptide MIC + Amikacin (bacterial isolates; P. aeruginosa PA037): 32 µg/mL | Gentamicin MIC + Peptide (bacterial isolates; P. aeruginosa PA041): 2 µg/mL | Peptide MIC + Gentamicin (bacterial isolates; P. aeruginosa PA041): 16 µg/mL | Gentamicin MIC + Peptide (bacterial isolates; S. aureus SA014 MRSA): 1 µg/mL | Peptide MIC + Gentamicin (bacterial isolates; S. aureus SA014 MRSA): 4 µg/mL | Gentamicin MIC + Peptide (bacterial isolates; S. maltophilia SMA016): 64 µg/mL | Peptide MIC + Gentamicin (bacterial isolates; S. maltophilia SMA016): 16 µg/mL | Amikacin MIC + Peptide (bacterial isolates; S. maltophilia SMA018): 8 µg/mL | Peptide MIC + Amikacin (bacterial isolates; S. maltophilia SMA018): 8 µg/mL | Gentamicin MIC + Peptide (bacterial isolates; S. maltophilia SMA019): 8 µg/mL | Peptide MIC + Gentamicin (bacterial isolates; S. maltophilia SMA019): 8 µg/mL | Amikacin MIC + Peptide (bacterial isolates; S. maltophilia SMA022): 8 µg/mL | Peptide MIC + Amikacin (bacterial isolates; S. maltophilia SMA022): 16 µg/mL | FIC (bacterial isolates; peptide + Amikacin, A. baumannii ABI001): 0.50 | FIC (bacterial isolates; peptide + Amikacin, A. baumannii ABI003): 0.53 | FIC (bacterial isolates; peptide + Amikacin, E. faecalis EFS008): 0.28 | FIC (bacterial isolates; [3]): 0.38 | FIC (bacterial isolates; peptide + Amikacin, P. aeruginosa PA037): 0.25 | FIC (bacterial isolates; peptide + Amikacin, S. maltophilia SMA018): 0.31 | FIC (bacterial isolates; peptide + Amikacin, S. maltophilia SMA022): 0.09 | FIC (bacterial isolates; [4]): 0.31 | FIC (bacterial isolates; [5]): 0.31 | FIC (bacterial isolates; [6]): 0.25 | FIC (bacterial isolates; peptide + Gentamicin, E. faecalis EFS008): 0.38 | FIC (bacterial isolates; peptide + Gentamicin, P. aeruginosa PA022): 0.38 | FIC (bacterial isolates; [7]): 0.31 | FIC (bacterial isolates; peptide + Gentamicin, S. aureus SA014 MRSA): 0.53 | FIC (bacterial isolates; peptide + Gentamicin, S. maltophilia SMA016): 0.31 | FIC (bacterial isolates; [8]): 0.38 | MIC (P. aeruginosa): >128 µg/mL | MIC (S. aureus): 2 µg/mL | MIC (S. marcescens): >128 µg/mL

— patent publication US20020035061A1, “COMPOSITIONS AND METHODS FOR TREATING INFECTIONS USING CATIONIC PEPTIDES ALONE OR IN COMBINATION WITH ANTIBIOTICS” (priority 1996, published 2002)
